The results in this text go back to a melting point compilation (Tetko et al.; mined from patent text by program, amines drawn as free bases though some values may be those of a salt).

`COCN(C(=O)CCl)c1c([N+](=O)[O-])cccc1[N+](=O)[O-]` registered a melting point of 106 to 108 °C.

The compound `CCCNC(=O)c1ccc2c(c1)N(C(C)COS(C)(=O)=O)c1ccccc1S2` (racemic) returned a melting point of 138 °C. To `CCC(CC)Nc1cc(-c2c(-c3cccc(C)c3)nc3cccnn23)ccn1` belongs 155 to 156 °C. Consider `COC(=O)CCCc1cc2nc(Cl)ccc2n1S(=O)(=O)c1ccc(C)cc1`, for which the melting point amounted to 106 °C. The compound `C=CCOC(=O)Nc1sc(-c2cccc(Cl)c2)cc1C(=O)OC` showed a melting point of 149 to 150 °C. `CCOC(=O)c1ccc(C(=O)C2=NS(=O)(=O)c3ccccc3C2=O)cc1` registered a melting point of 161 °C.

As for `O=P(O)(O)C1(P(=O)(O)O)CCN2C=CC=CC2=N1`, the melting point worked out at 80 °C. Compound `COc1ccc(Cn2c(S(=O)(=O)Cc3ccc(C)cn3)nc3cscc32)cc1` showed a melting point of 148 to 150 °C.

Compound `O=[N+]([O-])CC1(SCc2ccccc2)CCC2(CC1)OCCO2` registered a melting point of 121 to 122 °C. The value for `c1ccc2cc(Cn3ccnc3)ccc2c1` was 87 to 88 °C. The value for `CC(C)Oc1nccc2c1C(c1ccccc1C(F)(F)F)c1c(ccnc1OC(C)C)N2` was 196 to 197 °C. To `CCOc1cc(C(=O)O)cc(N)c1Cc1ccccc1` belongs 165 to 167 °C; to `Cc1ccc(C)c(-c2ccc(S(=O)(=O)N3c4ccccc4CC3C(=O)NCCOc3ccc(CC(=O)O)cc3)cc2)c1` (stereo unspecified), 81 to 84 °C; to `CCOCc1nc2c(N)nc3cccnc3c2n1CCCC(N)=O`, 231 to 232 °C.

For `CCCCc1c(C(=O)OCC)cc(OC(C)=O)c2c(OC)cccc12`, the melting point is 86 to 88 °C. To `N#CN=C1NCCN1Cc1cccnc1` belongs 126 to 128 °C. The value for `CCCC=Cc1c(C(C)C)nc(C(C)C)c(CO)c1-c1ccc(S(C)=O)cc1` (stereo unspecified) was 133 to 135 °C. To `COc1cc([N+](=O)[O-])c(F)cc1Br` belongs 74 to 76 °C. Compound `CCCCc1nc2c(N)nc3ccccc3c2n1CCCCNS(=O)(=O)c1cccc2c(N(C)C)cccc12` yielded a melting point of 223 to 224 °C. The value for `CN(C)C(=O)N(C)c1nnc(C(C)(C)CCl)s1` was 80 to 82 °C; that for `O=C(O)c1ccc(F)c(Nc2ncccc2-c2ccncn2)c1` was 95 °C.

Regarding `COc1ccc(NC(=S)C(N)=O)cc1OC`, the melting point fell in the range of 149 to 151 °C. On to `CC(=O)/C=C(\C)c1ccc(C2CCCCC2)c(Cl)c1`, for which the melting point lay within 56.5 to 57.5 °C.

`COC(=O)CCc1ccc(C(=C2CC(C)(C)CC(C)(C)C2)c2ccc(O)cc2)cc1`: the melting point was 129 to 130 °C. The value for `COc1cc2cc(C(=O)OC(C)(C)C)c(N)cc2cc1O` was 262 to 263 °C. The value for `Cc1cc(F)ccc1-c1cc(N2CCSCC2)ncc1N(C)C(=O)C(C)(C)c1cc(C(F)(F)F)cc(C(F)(F)F)c1` was 168 to 170 °C; that for `Cc1cc(C(C)(C)C)cc(C)c1SSc1c(C)cc(C(C)(C)C)cc1C` was 127 to 128 °C; that for `OCc1cc2cc(-c3ccsc3)ccc2o1` was 122 to 124 °C. To `CCCCCCCCc1ccc(C=CC(=O)CC(=O)OCC)cc1` belongs 57 °C. Take `CCOC(=O)NC(C)C(=O)c1ccc(O)c(Cl)c1` (stereo unspecified): the melting point fell in the range of 106 to 108 °C.

`CS(=O)(=O)c1ccc2c(c1)[nH]c(=S)n2NC(=O)c1ccc(Cl)c(S(N)(=O)=O)c1` returned a melting point of 298 to 300 °C. To `O=C(CP(=O)(O)O)NC1CCCCC1` belongs 180 to 183 °C; to `C/C=C\Cn1c(C(=O)c2cc(C)cc(C)c2)c(CC)c(=O)[nH]c1=O`, 199 to 200 °C.

Compound `BrCc1ccc(OCC(c2ccccc2)c2ccccc2)cc1` returned a melting point of 70 to 73 °C. To `O=C(NCC1Cc2cc(Cl)c3ccccc3c2O1)OCc1ccccc1` (stereo unspecified) belongs 117 to 119 °C. The value for `O=C(NC1CCCC1)c1cc2ccncc2[nH]1` was 220 to 224 °C; that for `CNCCCOc1ccc(-c2nnc(CSCCOc3ccccc3)o2)cc1` was 40 to 44 °C; that for `O=c1[nH][nH]c(=O)c2c(O)c3ccc(F)cc3nc12` was 228 °C. Turning to `O=C(Cl)c1ccc(Oc2ccc(Oc3ccccc3)cc2)cc1`, the melting point is 85 to 89 °C.

As to `Cc1cc(O)c(CCN(C)C)c(C)c1C`, the melting point turned out to be 72 °C.

As for `OCc1cnoc1-c1cc(Cl)ccc1Cl`, the melting point was 51 to 52 °C. The value for `CCOC(C)O[C@H]1C(=O)N[C@H]1C=Cc1ccccc1` (stereo partly specified) was 98 to 99 °C; that for `C=CCOC(=O)c1ccc(NCCCCCCCCCCCCCCCC)cc1` was 81 to 83 °C. Regarding `NNc1ccc(C(=O)O)cn1`, the melting point was 292 to 293 °C. `CC=CCOc1ccc(C)c2c1C(=O)C(C)C2c1ccccc1` (stereo unspecified) yielded a melting point of 138 to 140 °C. The value for `CC(C)OCCOc1ccc(-c2ccc3c(c2)C=C(C(=O)O)CCN3C=O)cc1` was 165 to 166 °C; that for `Fc1cc2cc[nH]c2cc1Cl` was 105 to 107 °C; that for `CCOC(=O)N1CCC(n2c(=O)[nH]c3cc(Cl)ccc32)CC1` was 160 °C. Turning to `Cc1nc2cccc(S(=O)(=O)n3c(CCCC(=O)O)cc4nc(Cl)ccc43)c2s1`, the melting point amounted to 225 °C. `CC1Oc2c(cc(CN3CCN(c4ccc(C(=O)NC5CC5)cc4)CC3)cc2C2CC2)NC1=O` (stereo unspecified) showed a melting point of 202 to 207 °C.

`CC(C)C[C@H](NC(=O)N1CCN(c2ccccc2)CC1)C(=O)OCc1ccccc1` yielded a melting point of 88 °C. To `COc1cc(CC(=O)NCCCc2ccc(C)c(C)c2)ccc1OCCNCCN` belongs 119 to 120 °C; to `CC(=O)COC(=O)C=CC(=O)OCC(C)=O`, 121 to 123 °C. `CCOC(=O)c1cn2c3c(cc(F)cc3c1=O)C(=O)CC2C` (stereo unspecified) displayed a melting point of 262 to 265 °C. For the compound `Cc1ccc(S(=O)(=O)c2ccccc2[N+](=O)[O-])cc1`, the melting point lay in the range of 155 to 156 °C. For `O=[N+]([O-])c1cc(C(c2ccc(O)c([N+](=O)[O-])c2)(C(F)(F)F)C(F)(F)F)ccc1O`, the melting point is 119 to 122 °C.

Consider `Cc1nc(Sc2ncccc2CC(=O)O)sc1CC(=O)O`, for which the melting point was 172 to 174 °C. In the case of `CC(C)C(=O)CNC(=O)c1ccc(Cl)cc1`, the melting point was in the range of 118 to 119 °C. The value for `CCCCCCCCCCOc1cc(O)cc(C(=O)OC)c1` was 92 to 94 °C; that for `C#CCOc1ccc(/C=C/C(=O)Nc2ccccc2C(=O)O)cc1OC` was 191 to 193 °C.

Compound `COc1ccccc1-c1cncc(OC2SCC(O)C(O)C2O)c1` (stereo unspecified) registered a melting point of 209 to 211 °C. The value for `Clc1ccc(Cl)c(-c2nnnn2Cc2cccnc2)c1` was 166 to 168 °C; that for `O=C1c2ccccc2COc2cc(Br)ccc21` was 110 to 112 °C. `CC(C)(C)CC(C)(C)c1cc(N=Nc2cc(C(F)(F)F)ccc2Cl)c(O)c(C(C)(C)c2ccccc2)c1`: the melting point fell in the range of 120 to 127 °C. To `COC(=O)[C@H](Cc1ccc(OCC2CCCN(C(=O)OC(C)(C)C)C2)cc1)NC(=O)[C@@H]1CCCN1S(=O)(=O)c1ccc(C)cc1` (stereo partly specified) belongs 82 to 84 °C; to `CCOC(=O)c1c(C)nn(-c2cccc(C)c2)c1C`, 46.5 to 47.5 °C. The value for `CC(C)OC(=O)N1CCC(NC(=O)N2CCn3c(c(C(N)=O)c(C#N)c3C3CC3)C2)CC1` was 181 to 182 °C; that for `COc1ccc(Nc2c(C#N)cnc3cc(OC)c(OC)cc23)cc1OC` was 230 to 240 °C.

Consider `CCOC(=O)c1cccc(Oc2ncccc2OCCCc2ccncc2O)c1`, for which the melting point lay within 76 to 79 °C. In turn, `N#CC1=C(C2CCCC2)Nc2n[nH]cc2C1c1cccc(C#N)c1Br` (stereo unspecified) returned a melting point of 247 °C. To `Cc1cc(C)c2c(c1C)OC1(CCN(C)CC1)C2c1ccc(C(C)C)cc1` (stereo unspecified) belongs 63 to 64 °C; to `CCOC(=O)CCCCCN1C(=O)c2cccc3cc(N)cc(c23)C1=O`, 108 to 110 °C. To `O=[N+]([O-])c1ccc(NS(=O)(=O)c2cc(Cl)c(Cl)cc2Cl)c(Cl)c1` belongs 177 to 179 °C; to `Cc1oc(-c2ccc(C(F)(F)F)cc2)nc1-c1ccc2c(Br)c(OC(Cc3ccccc3)C(=O)O)ccc2c1` (stereo unspecified), 195 to 197 °C; to `CC(C)(CCn1cnnc1)NCC(O)c1ccc(O)c(CO)c1` (stereo unspecified), 125 to 127 °C. As for `O=c1oc(Nc2ccccc2I)nc2ccccc12`, the melting point was in the range of 140 to 143 °C.

Consider `S=C1NCC(C2=CCC=CC2)N1` (stereo unspecified), for which the melting point was in the range of 165 to 167 °C.

`Cc1cccc(-c2sc(N)nc2-c2ccc3c(c2)OCO3)n1` returned a melting point of 170 to 172 °C. To `O=C(Nc1ccc(-c2cnc(-c3ccc(NC(=O)c4cccnc4)cc3)[nH]2)cc1)c1cccnc1` belongs 317 to 319 °C; to `O=C(c1ccc(Cl)cc1)c1cc(-c2ccncc2)c(N2CCOCC2)s1`, 176 °C; to `O=C1CCC(N2Cc3c(OCc4nc(CN5CCOCC5)no4)cccc3C2=O)C(=O)N1` (stereo unspecified), 150 to 152 °C.

In the case of `N#Cc1cc(N2C=CN=CC2)c[nH]c1=O`, the melting point was above 250 °C.

Turning to `Nc1cc(NC(=O)Nc2ccccc2)ccn1`, the melting point was above 290 °C. The value for `Cc1c(C)c(Cl)c2[nH]c(Cl)nc2c1Cl` was 280 to 285 °C.

`CC(=O)ONc1nc(CC(=O)Nc2cccc(C(F)(F)F)c2)cs1` returned a melting point of 137 to 140 °C.

With `COc1cc(-c2nc(NC(=O)c3c(C)c4cc(C)ccc4n3CC(=O)O)sc2CCC2CCCCC2)c(OC)cc1C`, the melting point lay in the range of 150 to 152 °C. For `O=C1CC2C1CC(O)C2Cl` (stereo unspecified), the melting point was in the range of 69 to 71 °C.

On to `Cc1oc(-c2ccccc2)nc1COc1cccc(C=CC=C2OC(=O)NC2=O)c1`, for which the melting point lay in the range of 229 to 230 °C. Consider `O=C1C(O)N(c2ccc(Oc3ccccc3)cc2)C(=S)N1c1ccccc1` (stereo unspecified), for which the melting point stood at 160 °C. Consider `Cc1ncc(C(=O)N2CCCCC2)s1`, for which the melting point came out at 68.7 °C. Regarding `Cc1c(C#N)c(=O)oc2c(C)c(O)c(CC(Br)CBr)cc12` (stereo unspecified), the melting point lay in the range of 175 to 176 °C.
